“And” between values parts separate entries of the source, which are not always exact repeats. Equal entries are not always repeated.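 How tested: cells in 96-well plates exposed to compound for 48 hours at five concentrations. Abbreviation: GI50, concentration required for 50% inhibition of growth. TGI: concentration producing complete growth inhibition.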
Tests used:
Assay in all cases: NCI tumour cell line growth inhibition, 48 h
[1] = test system: RXF-631 renal
[2] = test system: SNB-78 CNS
[3] = test system: DLD-1 colon
[4] = test system: HOP-18 NSCLC
[5] = test system: DMS 114 small cell lung
[6] = test system: KM20L2 colon
[7] = test system: DMS 273 small cell lung
[8] = test system: M19-MEL melanoma
[9] = test system: MDA-N
[10] = test system: P388/ADR leukemia
[11] = test system: SN12K1 renal

| SMILES | TGI [1] | TGI [2] | TGI [3] | TGI [4] | TGI [5] | TGI [6] | TGI [7] | TGI [8] | TGI [9] | other results |
| --- | --- | --- | --- | --- | --- | --- | --- | --- | --- | --- |
| COc1ccc2nc(C(=O)c3ccccc3)c(C)cc2c1 | > 100 µM | > 100 µM | > 66.7 µM | > 52 µM | 20.5 µM | 11 µM | 63.5 µM | > 37.7 µM |  |  |
| COC1CC(O)C(OC(=O)c2ccccc2)C(C)O1 (stereo unspecified) | > 100 µM | > 100 µM |  | > 100 µM |  | > 100 µM | > 100 µM | > 100 µM |  |  |
| Cc1ccc2nc(NC(=O)C(=O)C(C#N)c3ccc(Cl)cc3)sc2c1 (stereo unspecified) |  | > 50 µM |  | > 50 µM | > 50 µM | > 50 µM | > 50 µM | > 50 µM |  |  |
| Cc1ccc([N+](=O)[O-])c2c(NCCNC(=O)c3cc(C(=O)NCCNc4ccnc5c(C)ccc([N+](=O)[O-])c45)n(C)n3)ccnc12 |  |  |  |  |  |  |  |  | > 58 µM |  |
| COc1ccccc1NC(=O)C1=C(C)NC(C)=C(C(=O)Nc2ccccc2OC)C1/C=C/c1ccccc1 |  | > 100 µM | > 100 µM | > 100 µM | > 100 µM | > 100 µM | > 100 µM | > 100 µM |  |  |
| Cc1cc(-c2c(F)cc3c4nn([C@H]5CC[C@@H](N(C)C)CC5)c(=O)c-4cn(C4CC4)c3c2F)cc(C)n1 | 0.256 µM | 11.5 µM and 6.93 µM | 2.85 µM | 0.919 µM | 0.124 µM and 0.36 µM | 0.462 µM | 0.0372 µM and 0.172 µM | 0.507 µM and 1.59 µM | 6.75 µM | GI50 [2]: 0.669 µM; GI50 [3]: 0.156 µM; GI50 [5]: 0.111 µM; GI50 [7]: 0.03 µM; GI50 [8]: 0.247 µM |
| CCOC(=O)/C(=C/c1cccc(Cl)c1)N(CC)CC |  |  | > 100 µM | 84.6 µM | > 100 µM |  |  | > 100 µM |  |  |
| O=C(O)/C(Cc1ccnc2ccccc12)=N\O |  |  |  |  |  |  |  |  | > 100 µM |  |
| C/C(CN1C(=O)c2ccccc2C1=O)=N\NS(=O)(=O)c1cccc(C(=O)O)c1 | > 100 µM | > 100 µM | > 100 µM | > 100 µM | > 100 µM | > 100 µM | > 100 µM | > 100 µM |  |  |
| CC1=C(C(=O)Nc2ccccc2)C(c2ccccc2Cl)C(C(=O)Nc2ccccc2)=C(C)N1 | > 100 µM |  | > 100 µM | 56.5 µM |  | 38.9 µM | 41.9 µM | 36 µM |  |  |
| Nc1nc2c(C(=O)NCc3cccs3)nnn2c2cccc(Cl)c12 |  |  |  |  |  |  |  |  | > 100 µM |  |
| CCOC(=O)C(Cc1ccc(N(CCCl)CCCl)cc1)NC(=O)C(Cc1ccccc1)NC=O (stereo unspecified) |  |  |  |  |  |  |  |  | 0.338 µM |  |
| O=C(O)/C(Cc1cn[nH]n1)=N\O |  |  |  |  |  |  |  |  | > 100 µM |  |
| CC(C)c1cccc(C(C)C)c1N1C(=O)C(=O)C(c2nc3ccccc3o2)C(=O)C1=O | > 100 µM | > 100 µM | > 100 µM |  | 84.5 µM | > 100 µM | > 100 µM | > 100 µM |  |  |
| S=C1Cc2c(-c3ccc(Br)cc3)cc(-c3ccccc3)nc2-c2ccccc2N1 |  |  |  |  |  |  |  |  | 9.03 µM |  |
| COc1ccc(C2=Nc3ccccc3SC(C)C2)cc1OC (stereo unspecified) | > 100 µM | 66.7 µM |  |  | 34.8 µM | 33.6 µM | 34.8 µM |  |  |  |
| C1CN(c2nnc(N3CCC3)nn2)C1 |  | > 100 µM | > 100 µM | > 100 µM | 43.6 µM | > 63.7 µM | > 60.2 µM | 29.4 µM | 31 µM |  |
| O=C(NC(=O)c1c(Cl)nc2sccn12)Nc1ccc(Cl)cc1 | > 100 µM | > 100 µM | > 100 µM |  | > 100 µM | > 100 µM | > 100 µM | > 100 µM | > 100 µM |  |
| N#Cc1ccccc1NC(=O)C(=O)C1NC(=S)NC1=O (stereo unspecified) |  |  | > 100 µM | > 100 µM | > 100 µM | > 100 µM |  | > 100 µM |  |  |
| O=C(O)CCNS(=O)(=O)c1ccc2ccccc2c1 |  |  | > 100 µM | > 100 µM |  | > 100 µM | > 100 µM | > 100 µM |  |  |
| CS(=O)(=O)OCCCNCCCOS(C)(=O)=O |  | 8530 µM | 9100 µM | 2560 µM | 3630 µM | 5860 µM | 1150 µM | 5560 µM |  | TGI [10]: 8330 µM; TGI [11]: 2320 µM |

| SMILES | TGI [1] | TGI [2] | TGI [3] | TGI [4] | TGI [5] | TGI [6] | TGI [7] | TGI [8] | TGI [9] | other results |
| --- | --- | --- | --- | --- | --- | --- | --- | --- | --- | --- |
| COc1ccc2oc3c(OC)c(OC)c(OC)cc3c(=O)c2c1 | > 100 µM | > 100 µM | > 100 µM | > 100 µM | > 100 µM | > 100 µM | > 100 µM | > 100 µM |  |  |
| CCOC(=O)c1cc(-c2ccc(-c3cc(C(=O)OCC)c(C#N)c(N)c3C#N)cc2)c(C#N)c(N)c1C#N | > 100 µM | > 100 µM | > 100 µM | > 100 µM | > 100 µM | > 100 µM | > 100 µM | > 100 µM |  |  |
| Cc1ccc(N=C[N-]c2ccc(C)cc2)cc1.Cc1ccc(N=C[N-]c2ccc(C)cc2)cc1.O=C([O-])C(F)(F)F.O=C([O-])C(F)(F)F.[OH3+].[OH3+].[Rh+2].[Rh+2] | > 100 µM | > 100 µM | > 100 µM | 71.4 µM | > 100 µM | > 100 µM | > 100 µM | 89.4 µM |  | GI50 [1]: > 100 µM; GI50 [2]: 53.3 µM; GI50 [3]: 56.7 µM; GI50 [4]: 27.7 µM; GI50 [5]: 38.4 µM; GI50 [6]: 39.9 µM; GI50 [7]: 80.2 µM; GI50 [8]: 33.3 µM |
| CN1Cc2ccccc2/C=C\c2ccccc21 |  |  |  |  |  |  |  |  | > 100 µM |  |
| C#CC1=CC(=O)C(OC)=CC1=O |  |  |  |  |  |  |  |  | 37.6 µM |  |
| COCCOc1cc(C)cc(/C=C(C)/C=C/C2=C(C)CCCC2(C)C)n1 | > 100 µM | > 100 µM | > 100 µM | > 100 µM | > 100 µM |  | > 100 µM | > 100 µM |  |  |
| NC1c2ccccc2Nc2ccccc21 |  | 37.3 µM | 17.1 µM | 39.7 µM | 12.5 µM | 14.3 µM | 25.7 µM | 13.9 µM |  |  |
| O=[N+]([O-])c1ccc(Cl)c(CNc2ncnc3c2ncn3C2CCCCO2)c1 (stereo unspecified) |  |  |  |  |  |  |  |  | 27 µM |  |
| O=C(C(=O)n1ncc(Cl)c(Cl)c1=O)n1ncc(Cl)c(Cl)c1=O | > 100 µM | 88.2 µM | 32.4 µM | 67 µM | > 62.8 µM | > 85.8 µM | 44.5 µM | 48.7 µM |  |  |
| CCCCCC(=O)Nc1nc2nc[nH]c2c(=O)[nH]1 |  | > 100 µM | > 100 µM | > 100 µM | > 100 µM | > 100 µM | > 100 µM | > 100 µM |  |  |
| Cc1cccc(C(=O)O)c1C(=O)c1cccc2ccccc12 |  | > 100 µM | > 100 µM | > 100 µM | > 100 µM | > 100 µM | > 100 µM | > 100 µM |  |  |
| CC1=C(SC#N)S(=O)(=O)N(c2ccccc2)C(C)=C1SC#N |  | > 100 µM | > 100 µM |  | 38.3 µM |  | > 100 µM | > 100 µM |  |  |
| CCCCCCCC1(c2ccc(N)cc2)CCC(=O)NC1=O (stereo unspecified) | > 100 µM | > 100 µM | > 100 µM |  | 85.3 µM | > 100 µM | 73.8 µM | > 100 µM |  |  |
| Cc1ccc(NC(=O)C(=O)CC(=O)c2c(C)n([O-])c3ccccc3[n+]2=O)cc1C |  | > 100 µM |  | > 100 µM |  | > 100 µM | > 100 µM | > 100 µM |  |  |
| COC(=O)Nc1nc2ccccc2[nH]1 |  |  |  |  |  |  |  |  | 11.6 µM |  |
| CCC[CH2][Sn]([CH2]CCC)([S]C#N)[S]C#N | 1.43 µM | 2.51 µM | 2.23 µM | 2.44 µM | 2.68 µM | 3.6 µM | 4.21 µM | 5.04 µM |  | GI50 [1]: 0.329 µM; GI50 [2]: 0.663 µM; GI50 [3]: 0.999 µM; GI50 [4]: 1.21 µM; GI50 [5]: 0.506 µM; GI50 [6]: 1.78 µM; GI50 [7]: 1.63 µM; GI50 [8]: 0.909 µM |
| COc1cc(/C=C/c2ccc(O)c(OC)c2)cc(OC)c1 |  |  |  |  |  |  |  |  | 46 µM |  |
| N#CC(C(=O)CCCC(=O)Nc1ccc(Cl)cc1Cl)c1ccccc1 (stereo unspecified) | > 100 µM | > 100 µM | > 100 µM | > 100 µM | > 100 µM | > 100 µM | > 100 µM | > 100 µM |  |  |
| Cc1ccc(C)c(N2C(=O)C(=O)C(c3nc4ccccc4o3)C(=O)C2=O)c1 | > 100 µM | > 100 µM | 65.6 µM | > 100 µM | > 100 µM | > 100 µM | > 100 µM | > 100 µM |  |  |
| CCCCCC(O)C(O)CCC[C@H](O)[C@H]1CC[C@H]([C@H]2CC[C@H]([C@H](O)CCCCCCCCCCCCC3=C[C@H](C)OC3=O)O2)O1 (stereo partly specified) |  |  |  |  |  |  |  |  | 23.5 µM | GI50 [9]: 4.19 µM |

Reference: PubChem BioAssay (NCI)
